Values quoted from earlier work in US20110245183A1, “Topical Uses of Szeto-Schiller Peptides” (priority 2010, published 2011).
Where no end group is shown, it is not given here. [ ]: non-standard residue; d: D form. Dmt = Cc1cc(O)cc(C)c1C[C@H](N)C(=O)O

Key:
[1] = test system: Parkinson's Disease (PD) or Amyotrophic Lateral Sclerosis (ALS); details: mice studies
isolated mitochondria = details: MPP+ (1-methyl-4-phenylpyridium)

Substance	effectiveness in the treatment of Parkinson's Disease (PD) or Amyotrophic Lateral Sclerosis (ALS) [1]	MPP+-induced inhibition of ATP production (isolated mitochondria)	MPP+-induced inhibition of oxygen consumption (isolated mitochondria)	MPP+-induced mitochondrial swelling (isolated mitochondria)	inhibiting LDL oxidation (LDL)
D-Arg-2′,6′-Dmt-Lys-Phe-NH2 ([dR][Dmt]KF-NH2) [SS-31]	may be effective	prevented	prevented	prevented	as effective as SS-02
Phe-D-Arg-Phe-Lys-NH2 (F[dR]FK-NH2; N-terminus assumed; SMILES N=C(N)NCCC[C@@H](NC(=O)[C@@H](N)Cc1ccccc1)C(=O)N[C@@H](Cc1ccccc1)C(=O)N[C@@H](CCCCN)C(N)=O) [SS-20]	may be effective	prevented	prevented	prevented	–
